Reference: patent publication US10920248B2, “Method for mass-producing viniferin using stevioside from cell culture of grapevine tissue” (KOREA RESEARCH INSTITUTE OF BIOSCIENCE AND BIOTECHNOLOGY, priority 2016, dated 2021)

Key:
[1] = test system: resveratrol biosynthesis gene (STS, ROMT); assay: Transcription expression analysis (RT-PCR) of resveratrol biosynthesis genes after activity-inducing agent treatment of grape callus liquid culture; type: cell-based, Vitis vinifera L. cv Campbell Early; conditions: FIG. 2; for expression of the two genes (STS, ROMT): grape callus in MS1D liquid medium, 24 hours after treatment, RT-PCR
Method: In order to establish a production system of resveratrol from grape callus, transcription expression analysis was performed through a liquid culture of stabilized grape callus derived in Example 1 as described above. It was performed in which they were cultured in MS1D (4.4 g of MS, 30 g of sucrose, 0.5 g of MES, 0.1 g of Miyo-inositol, 0.4 mg thiamine HCl, and 1 mg/L of 2,4-D), which is called a Murashige & Skoog (MS) medium containing 1 mg/L of 2,4-D, liquid medium at 25° C. and 90 rpm for 7 days, followed by treatment with an activity-inducing agent. After 24 hours, total RNA was isolated from the grape callus (Kim C Y et al. 2010, Physiologia plantarum 139: 259-261). cDNA was synthesized from the isolated total RNA (5 μg) using First-Strand cDNA Synthesis Kit (Fermantas, Canada) as described in the instruction. The synthesized cDNA (20 μl) was diluted 2.5 times and then subjected to RT-PCR using 2 μl as a template for genes related to resveratrol and pterostilbene biosynthesis from the grape callus. PCR amplification was carried out by denaturation at 94° C. for 2 minutes, 25 cycles of at 95° C. for 30 seconds, 50° C. for 40 seconds, and 72° C. for 1 minute, and a final extension reaction at 72° C. for 10 minutes. The grape resveratrol, pterostilbene biosynthesis gene, and grapactin RT-PCR primers used for this experiment were as follows: […]
Various activity-inducing agents were used for the treatment so as to promote the production of stilbene compound. The activity-inducing agents used herein were methyl jasmonate (MeJA), abscisic acid (ABA), salicylic acid (SA), ethephon, flagellin 22 (Flg22), methyl viologen (MV), and chitosan. The results confirmed that the expression of the two genes increased when MeJA, SA, and Flg22 were used and that the gene expression was the highest when MeJA was used (see FIG. 2).

[2] = test system: grape callus; assay: Production of stilbene compounds in grape callus culture treated with activity-inducing agent and solubilizing agent, HPLC analysis of culture extract; type: cell-based, Vitis vinifera L. cv Campbell Early; conditions: with 100 μM MeJA, 7-day grape callus culture medium, 50 mM stevioside, FIG. 3
Method: Production of stilbene compounds was induced using the activity-inducing agent (100 μM MeJA) selected in Example 2 as described above. 20 ml of MS was inoculated with 2 g of grape callus, then cultured in a 125 ml flask for 7 days. Then, it was treated with 100 μM MeJA to obtain grape callus after 5 days. HPLC analysis was performed on the extract thereof. […] The experiment was performed to increase the production rate by solubilizing stilbene compound produced by treating with stevioside. As described above, 7-day grape callus culture was treated with 5 mM, 10 mM, 25 mM, and 50 mM stevioside at different concentrations or was treated with 100 μM MeJA and 5 mM, 10 mM, 2 5 mM, and 50 mM stevioside at different concentrations. After 5 days of culture, the samples were separated into callus and callus culture using a filter. The separated callus was filtered, followed by dehydration. The callus was frozen with liquid nitrogen and stored at −80° C. until extraction. The callus culture extract was directly extracted from the callus culture sample without storage so as to be used. […]

| Structure (SMILES) | gene expression compared among activity-inducing agents ([1]; compared with ABA, SA, ethephon, Flg22, MV, chitosan) | expression of the two genes (STS, ROMT) [1] | content of the stilbene compound compared to the group untreated with stevioside [2] |
| --- | --- | --- | --- |
| CC/C=C\CC1C(=O)CCC1CC(=O)OC (stereo not shown) [MeJA, methyl jasmonate] | highest | increased |  |
| C=C1C[C@@]23CC[C@H]4[C@@](C)(CCC[C@@]4(C)C(=O)O[C@@H]4O[C@H](CO)[C@@H](O)[C@H](O)[C@H]4O)[C@@H]2CC[C@]1(O[C@@H]1O[C@H](CO)[C@@H](O)[C@H](O)[C@H]1O[C@@H]1O[C@H](CO)[C@@H](O)[C@H](O)[C@H]1O)C3 [stevioside] |  |  | significantly increased |
| O=C(O)c1ccccc1O [SA, salicylic acid] |  | increased |  |
